One assay addresses dephosphorylated FGFR2 (Homo sapiens (Human), UniProt P21802). The assay can be described thus: FGFR enzyme binding assay (HTRF tracer displacement), FGFR2. The note with it: 5 nM dephosphorylated FGFR2, average of multiple determinations if made. The procedure: The potency of compounds inhibiting human isoforms of FGFR kinase was determined using Life Technologies' Homogeneous Time Resolved Fluorescence (HTRF)-based binding assay technology. […] After a 60 minute incubation at 22° C., the extent of tracer displacement was determined using a PerkinElmer EnVision multimode plate reader via HTRF dual wavelength detection, and the percent of control (POC) was calculated using a ratiometric emission factor. One hundred POC was determined using no test compound, and 0 POC was determined in the presence of 1 μM of an appropriate control inhibitor.
A general note: In TR-FRET formats the signal depends on donor and acceptor labels being close together.

Assay [1] has as its target recombinant human FGFR1 catalytic domain (amino acids 308-731) (Homo sapiens (Human), UniProt P11362). As to the kind of experiment: FGFR1 enzyme activity assay (LanthaScreen TR-FRET). The format is biochemical. The note with it: 20 min incubation at 22° C., average of multiple determinations if made, read-out: FGFR1 Enz FRET IC50. The method in brief:
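His-tagged FGFR1 kinase domain with 100 nM Alexa Fluor 647-poly-GT peptide and ATP in pH 7.5 HEPES/MgCl2 buffer with 2% DMSO, 20 min at 22 °C. Quenched with EDTA plus 2 nM Eu-PY20 antibody and read after 60 min. IC50 comes from a 4-parameter fit of percent of control.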

The target of assay [2] is phosphorylated FGFR3 (SEQ ID NO: 5, amino acids 449 to 759) (Homo sapiens (Human), UniProt P22607). As to the kind of experiment: FGFR enzyme binding assay (HTRF tracer displacement), FGFR3. The conditions noted are these: 5 nM phosphorylated FGFR3, average of multiple determinations if made. The method in brief: (§1)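 Kinase and tracer were incubated with compound for 60 minutes at 22° C. Tracer displacement was then measured by HTRF, and results were expressed as POC with 1 μM control inhibitor defining full displacement.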

For assay [3], the target named is T1, HEK-293 cells transfected with dox-inducible human wild type FGFR3 (Homo sapiens (Human), UniProt P22607). The assay can be described thus: FGFR3 pERK cell assay. The conditions noted are these: HEK-293 dox-inducible FGFR3, 1 hour compound, 100 ng/ml FGF-acidic; maximum concentration 5 μM. The format is cell-based. The method, boiled down:
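Doxycycline-induced cells preincubated 1 h at 37 °C with compound (1:3 dilutions, top 5 μM final), then stimulated 5 min with 100 ng/ml FGF-acidic. Lysate phospho-ERK1/2 measured by MSD sandwich assay; IC50 at 50 POC from 4-parameter fit, normalised to no-compound and control-compound wells.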

Assay [4] deals with dephosphorylated FGFR1 (SEQ ID NO: 1, amino acids 458 to 765) (Homo sapiens (Human), UniProt P11362). As to the kind of experiment: FGFR enzyme binding assay (HTRF tracer displacement), FGFR1. The conditions noted are these: 5 nM dephosphorylated FGFR1, average of multiple determinations if made. The method in brief:
as §1

Assay [5] concerns the target T1, HEK-293 cells transfected with dox-inducible human wild type FGFR3. As to the kind of experiment: FGFR3 pFGFR cell assay (ELISA). The format is cell-based. The conditions noted are these: HEK-293 dox-inducible FGFR3, 1 hour compound, 100 ng/ml FGF-acidic. The method, boiled down:
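Doxycycline-induced (1 μg/ml) HEK-293 cells expressing wild-type human FGFR3, treated 1 h with compound (1:3 series, top final 5 μM), then stimulated 5 min with 100 ng/ml FGF-acidic. Phospho-FGFR3 measured by ELISA (total FGFR3 capture, phosphotyrosine detection, OD 450 nm); IC50 from 4-parameter fit of POC values.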

For 15 compounds, IC50 results are on record in patent publication US12180207B2 (ARRAY BIOPHARMA INC., priority 2018, dated 2024).

Sequence of phosphorylated FGFR3 (SEQ ID NO: 5, amino acids 449 to 759) (P22607 449-759): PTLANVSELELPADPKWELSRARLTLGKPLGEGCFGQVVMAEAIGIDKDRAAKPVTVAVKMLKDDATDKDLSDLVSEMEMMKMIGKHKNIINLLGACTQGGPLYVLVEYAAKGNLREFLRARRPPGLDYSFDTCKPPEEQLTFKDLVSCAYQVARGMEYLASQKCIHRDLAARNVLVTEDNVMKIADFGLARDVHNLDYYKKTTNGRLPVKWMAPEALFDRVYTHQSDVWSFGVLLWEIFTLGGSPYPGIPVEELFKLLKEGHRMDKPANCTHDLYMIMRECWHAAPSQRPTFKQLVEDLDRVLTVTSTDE
Sequence of dephosphorylated FGFR2 (P21802 22-821): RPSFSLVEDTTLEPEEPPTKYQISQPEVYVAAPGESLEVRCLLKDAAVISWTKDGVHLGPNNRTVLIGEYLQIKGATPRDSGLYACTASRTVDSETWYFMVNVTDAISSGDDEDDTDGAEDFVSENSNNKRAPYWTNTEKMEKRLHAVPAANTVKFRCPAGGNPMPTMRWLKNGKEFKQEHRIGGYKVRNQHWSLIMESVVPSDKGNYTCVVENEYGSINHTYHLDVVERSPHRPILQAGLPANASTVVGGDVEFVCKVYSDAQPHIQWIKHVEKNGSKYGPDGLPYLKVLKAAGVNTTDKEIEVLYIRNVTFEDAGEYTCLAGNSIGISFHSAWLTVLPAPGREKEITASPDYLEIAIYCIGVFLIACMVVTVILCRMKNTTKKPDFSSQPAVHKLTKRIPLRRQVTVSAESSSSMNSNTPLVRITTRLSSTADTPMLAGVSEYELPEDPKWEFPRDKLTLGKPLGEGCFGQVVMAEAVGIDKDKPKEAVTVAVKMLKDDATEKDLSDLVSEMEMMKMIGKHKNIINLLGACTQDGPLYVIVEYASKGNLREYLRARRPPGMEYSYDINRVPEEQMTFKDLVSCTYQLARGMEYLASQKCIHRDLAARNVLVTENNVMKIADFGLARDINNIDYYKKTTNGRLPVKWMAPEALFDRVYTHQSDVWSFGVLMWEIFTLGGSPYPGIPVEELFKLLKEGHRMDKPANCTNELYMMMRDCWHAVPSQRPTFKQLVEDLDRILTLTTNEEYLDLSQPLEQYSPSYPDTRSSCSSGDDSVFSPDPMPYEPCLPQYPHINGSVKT
T1 sequence (P22607 23-806): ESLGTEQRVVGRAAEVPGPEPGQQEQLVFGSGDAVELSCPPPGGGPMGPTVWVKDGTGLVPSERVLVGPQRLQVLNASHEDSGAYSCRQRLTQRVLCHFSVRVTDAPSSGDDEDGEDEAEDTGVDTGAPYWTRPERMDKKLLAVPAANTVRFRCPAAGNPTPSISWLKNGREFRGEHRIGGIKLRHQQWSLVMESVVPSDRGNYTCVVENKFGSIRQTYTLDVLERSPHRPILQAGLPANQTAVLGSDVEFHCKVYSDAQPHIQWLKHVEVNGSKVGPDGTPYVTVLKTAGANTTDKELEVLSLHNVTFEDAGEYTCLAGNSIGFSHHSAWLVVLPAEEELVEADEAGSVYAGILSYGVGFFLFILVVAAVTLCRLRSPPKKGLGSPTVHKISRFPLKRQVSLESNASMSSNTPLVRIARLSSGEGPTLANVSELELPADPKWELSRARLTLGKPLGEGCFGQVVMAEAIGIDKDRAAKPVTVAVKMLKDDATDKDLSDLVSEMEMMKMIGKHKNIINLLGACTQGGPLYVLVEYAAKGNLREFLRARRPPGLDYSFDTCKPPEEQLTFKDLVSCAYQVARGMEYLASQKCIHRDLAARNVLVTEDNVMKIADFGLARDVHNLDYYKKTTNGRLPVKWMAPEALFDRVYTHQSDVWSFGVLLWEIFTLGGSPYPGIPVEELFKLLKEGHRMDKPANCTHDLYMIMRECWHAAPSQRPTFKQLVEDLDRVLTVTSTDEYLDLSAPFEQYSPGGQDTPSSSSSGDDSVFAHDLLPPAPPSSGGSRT
Sequence of dephosphorylated FGFR1 (SEQ ID NO: 1, amino acids 458 to 765) (P11362 458-765): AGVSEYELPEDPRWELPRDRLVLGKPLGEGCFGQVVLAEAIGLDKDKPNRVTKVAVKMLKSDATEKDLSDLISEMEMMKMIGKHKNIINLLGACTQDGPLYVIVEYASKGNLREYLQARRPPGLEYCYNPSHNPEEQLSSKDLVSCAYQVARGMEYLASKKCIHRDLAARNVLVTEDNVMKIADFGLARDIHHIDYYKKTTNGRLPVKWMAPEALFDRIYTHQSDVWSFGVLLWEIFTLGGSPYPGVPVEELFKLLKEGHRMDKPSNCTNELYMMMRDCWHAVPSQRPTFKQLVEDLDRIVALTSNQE
Sequence of recombinant human FGFR1 catalytic domain (amino acids 308-731) (P11362 other isoform, or with tags, fused parts or gaps): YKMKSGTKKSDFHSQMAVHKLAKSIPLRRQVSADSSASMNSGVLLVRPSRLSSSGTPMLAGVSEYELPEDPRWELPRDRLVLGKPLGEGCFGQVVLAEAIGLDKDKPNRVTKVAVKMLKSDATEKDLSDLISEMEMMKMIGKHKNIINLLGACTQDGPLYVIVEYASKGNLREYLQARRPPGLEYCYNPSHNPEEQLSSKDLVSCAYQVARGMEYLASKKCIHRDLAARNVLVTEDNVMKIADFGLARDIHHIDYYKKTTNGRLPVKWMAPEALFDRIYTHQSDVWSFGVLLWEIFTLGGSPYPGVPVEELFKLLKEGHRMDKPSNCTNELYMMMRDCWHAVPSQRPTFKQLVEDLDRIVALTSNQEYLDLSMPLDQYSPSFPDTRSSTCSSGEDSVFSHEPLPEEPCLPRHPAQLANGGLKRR

In the case of `C=CC(=O)N1CC(OC)(C(=O)N2CCC(n3nc(C)c(-c4cc(OC)c5c(C#N)cnn5c4)c3C)CC2)C1` [Example 95, 6-(1-(1-(1-acryloyl-3-methoxyazetidine-3-carbonyl)piperidin-4-yl)-3,5-dimethyl-1H-pyrazol-4-yl)-4-methoxypyrazolo[1,5-a]pyridine-3-carbonitrile], the IC50 at dephosphorylated FGFR2 amounted to 155 nM; in assay [1], 842 nM; in assay [2], 26 nM; in assay [3] it was 98 nM; in assay [4] it was 675 nM.
On to `C=CC(=O)N1CC(C(=O)N2CCC3(CC2)CN(c2ccc(-c4cc(OC)c5c(C#N)cnn5c4)cn2)C3)C1` [Example 102, 6-(6-(7-(1-acryloylazetidine-3-carbonyl)-2,7-diazaspiro[3.5]nonan-2-yl)pyridin-3-yl)-4-methoxypyrazolo[1,5-a]pyridine-3-carbonitrile], for which the IC50 came out at 22 nM at dephosphorylated FGFR2; 38 nM in assay [1]; 6 nM in assay [2]; 44 nM in assay [3]; 44 nM in assay [4].
`C=CC(=O)N1CC(C(=O)N2CCC3(C2)CN(c2ccc(-c4cc(OC)c5c(C#N)cnn5c4)cn2)C3)C1` [Example 103, 6-(6-(6-(1-acryloylazetidine-3-carbonyl)-2,6-diazaspiro[3.4]octan-2-yl)pyridin-3-yl)-4-methoxypyrazolo[1,5-a]pyridine-3-carbonitrile]: the 50% inhibitory concentration (IC50) on dephosphorylated FGFR2 stood at 39 nM; in assay [1] it was 49 nM; in assay [2], 10 nM; in assay [3], 137 nM; in assay [4] it was 70 nM.
The like results for `C=CC(=O)N1CC(C(=O)N2CC3(C2)CN(c2ccc(-c4cc(OC)c5c(C#N)cnn5c4)cn2)C3)C1` [Example 104, 6-(6-(6-(1-acryloylazetidine-3-carbonyl)-2,6-diazaspiro[3.3]heptan-2-yl)pyridin-3-yl)-4-methoxypyrazolo[1,5-a]pyridine-3-carbonitrile] were, in that order, 45 nM, 63 nM, 12 nM, 146 nM and 72 nM.
As to `C=CC(=O)N1CC(C(=O)N2CC3CC(C2)N3c2ccc(-c3cc(OC)c4c(C#N)cnn4c3)cn2)C1` [Example 105, 6-(6-(3-(1-acryloylazetidine-3-carbonyl)-3,6-diazabicyclo[3.1.1]heptan-6-yl)pyridin-3-yl)-4-methoxypyrazolo[1,5-a]pyridine-3-carbonitrile], the IC50 at dephosphorylated FGFR2 came out at 226 nM; in assay [1], 193 nM; in assay [2], 97 nM; in assay [3], 2660 nM; in assay [4], 435 nM.
For `C=CC(=O)N1CC(C(=O)N2C[C@@H]3C[C@H]2CN3c2ccc(-c3cc(OC)c4c(C#N)cnn4c3)cn2)C1` [Example 106, 6-(6-((1S,4S)-5-(1-acryloylazetidine-3-carbonyl)-2,5-diazabicyclo[2.2.1]heptan-2-yl)pyridin-3-yl)-4-methoxypyrazolo[1,5-a]pyridine-3-carbonitrile], in that order: 30 nM, 61 nM, 9 nM, 244 nM and 62 nM.
For the compound `C=CC(=O)N1CC(C(=O)N2C[C@H]3C[C@@H]2CN3c2ccc(-c3cc(OC)c4c(C#N)cnn4c3)cn2)C1` [Example 107, 6-(6-((1R,4R)-5-(1-acryloylazetidine-3-carbonyl)-2,5-diazabicyclo[2.2.1]heptan-2-yl)pyridin-3-yl)-4-methoxypyrazolo[1,5-a]pyridine-3-carbonitrile], the IC50 at dephosphorylated FGFR2 was 56 nM; in assay [1] it was 68 nM; in assay [2] it was 16 nM; in assay [3] it was 355 nM; in assay [4] it was 108 nM.
Consider `C=CC(=O)N1CC(CN2C[C@H]3C[C@@H]2CN3c2ccc(-c3cc(OC)c4c(C#N)cnn4c3)cn2)C1` [Example 108, 6-(6-((1R,4R)-5-((1-acryloylazetidin-3-yl)methyl)-2,5-diazabicyclo[2.2.1]heptan-2-yl)pyridin-3-yl)-4-methoxypyrazolo[1,5-a]pyridine-3-carbonitrile], for which the IC50 on dephosphorylated FGFR2 was determined as 28 nM; in assay [1] it was 20 nM; in assay [2], 11 nM; in assay [3], 47 nM; in assay [4] it was 55 nM.
As for `C=CC(=O)N1CC(C(=O)N2CCN(c3ccc(-c4cc(OC)c5c(C#N)cnn5c4)cn3)CC2)C1` [Example 111, 6-(6-(4-(1-acryloylazetidine-3-carbonyl)piperazin-1-yl)pyridin-3-yl)-4-methoxypyrazolo[1,5-a]pyridine-3-carbonitrile], the IC50 in assay [1] was found to be 12 nM; in assay [2], 11 nM; in assay [3] it was 34 nM; in assay [4], 144 nM; in assay [5], 43 nM.
For the compound `C=CC(=O)N1CC(F)(C(=O)N2CCN(c3ccc(-c4cc(OC)c5c(C#N)cnn5c4)cn3)CC2)C1` [Example 112, 6-(6-(4-(1-acryloyl-3-fluoroazetidine-3-carbonyl)piperazin-1-yl)pyridin-3-yl)-4-methoxypyrazolo[1,5-a]pyridine-3-carbonitrile], the IC50 came out at 16 nM on dephosphorylated FGFR2; 21 nM in assay [1]; 4 nM in assay [2]; 21 nM in assay [3]; 82 nM in assay [4].
For `C=CC(=O)N1CC(C(=O)N2CCC(n3cc(-c4cc(OC)c5c(Cl)cnn5c4)cn3)CC2)C1` [Example 122, 1-(3-(4-(4-(3-chloro-4-methoxypyrazolo[1,5-a]pyridin-6-yl)-1H-pyrazol-1-yl)piperidine-1-carbonyl)azetidin-1-yl)prop-2-en-1-one], the IC50 was 28 nM in assay [1]; 7 nM in assay [2]; 52 nM in assay [3]; 120 nM in assay [4]; 71 nM in assay [5].
Consider `C=CC(=O)N1CC(S(=O)(=O)N2CCC(n3cc(-c4cc(OC)c5c(C#N)cnn5c4)cn3)CC2)C1` [Example 134, 6-(1-(1-((1-acryloylazetidin-3-yl)sulfonyl)piperidin-4-yl)-1H-pyrazol-4-yl)-4-methoxypyrazolo[1,5-a]pyridine-3-carbonitrile], for which the IC50 in assay [1] was 5 nM; in assay [2], 2 nM; in assay [3], 13 nM; in assay [4], 35 nM; in assay [5] it was 12 nM.
For `C#CC(=O)N1CC(C(=O)N2CCC(n3cc(-c4cc(OC)c5c(C#N)cnn5c4)cn3)CC2)C1` [Example 138, 4-methoxy-6-(1-(1-(1-propioloylazetidine-3-carbonyl)piperidin-4-yl)-1H-pyrazol-4-yl)pyrazolo[1,5-a]pyridine-3-carbonitrile], in that order: 7 nM, 2 nM, 16 nM, 27 nM and 17 nM.
In the case of `COc1cc(-c2cnn(C3CCN(CC4CN(C(=O)/C=C/CN(C)C)C4)CC3)c2)cn2ncc(C#N)c12` [Example 146, (E)-6-(1-(1-((1-(4-(dimethylamino)but-2-enoyl)azetidin-3-yl)methyl)piperidin-4-yl)-1H-pyrazol-4-yl)-4-methoxypyrazolo [1,5-a]pyridine-3-carbonitrile], the IC50 in assay [1] turned out to be 12 nM; in assay [2], 4 nM; in assay [3] it was 96 nM; in assay [4], 51 nM; in assay [5] it was 80 nM.
Consider `C=CS(=O)(=O)N1CCC(C(=O)N2CCC(n3cc(-c4cc(OC)c5c(C#N)cnn5c4)cn3)CC2)CC1` [Example 186, 4-methoxy-6-(1-(1-(1-(vinylsulfonyl)piperi-dine-4-carbonyl)piperidin-4-yl)-1H-pyrazol-4-yl)pyrazolo[1,5-a]pyridine-3-carbonitrile], for which the 50% inhibitory concentration (IC50) in assay [1] was found to be 5 nM; in assay [2], 2 nM; in assay [3] it was 6 nM; in assay [4] it was 14 nM; in assay [5], 6 nM.

Usually IC50 stands for the concentration that gives 50% inhibition.
